Test results: patent EP2140864A2 (H. Lundbeck A/S, priority 2001, dated 2002)

Biological target: T1, human GAL3 receptor (Homo sapiens, UniProt O60755)
T1 construct: expressed in transfected cells
T1 sequence (O60755 1-368): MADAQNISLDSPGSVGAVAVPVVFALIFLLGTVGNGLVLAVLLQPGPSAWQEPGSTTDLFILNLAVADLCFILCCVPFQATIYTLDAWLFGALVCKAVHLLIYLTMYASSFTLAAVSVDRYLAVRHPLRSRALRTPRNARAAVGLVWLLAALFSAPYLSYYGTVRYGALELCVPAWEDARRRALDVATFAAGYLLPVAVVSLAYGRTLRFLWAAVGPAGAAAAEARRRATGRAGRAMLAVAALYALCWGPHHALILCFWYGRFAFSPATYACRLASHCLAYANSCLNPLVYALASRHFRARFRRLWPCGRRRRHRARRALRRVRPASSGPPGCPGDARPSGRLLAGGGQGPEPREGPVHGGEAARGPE
Experiment: Radioligand binding at cloned human GAL3 receptor
Conditions: indolones, cloned human receptor; read-out: Ki GalR3
Experimental: The present invention provides for a method of determining the binding affinity of a GAL3 antagonist, wherein the GAL3 antagonist is dissolved in a "suitable solvent". A "suitable solvent" means one which permits the measurement of binding affinity of the GAL3 antagonist to the human GAL3 receptor at concentrations less than 1 µM, preferably less than 100 nM. Examples of solvents include, but are not limited to, DMSO, ethanol, N,N-dimethylacetamide, or water. For indolones, the preferred solvent is 3% DMSO (final concentration in the assay). For pyrimidines, the preferred solvent is 1% ethanol/0.09% polypuronic acid F-127 (final concentration in the assay). For any other type of compounds, the preferred solvent is the solvent which permits the measurement of binding affinity of a GAL3 antagonist at the lowest concentration. Once a suitable solvent is ascertained for the binding assay of the human GAL3 receptor, the same solvent is used in assays to determine the binding affinity at the GAL1 receptor, the serotonin transporter, the norepinephrine transporter, and the dopamine transporter. A solvent of 0.4% DMSO is used in the central monoamine oxidase enzyme assay.
The binding properties of the pyrimidines of the present invention were evaluated at the cloned human galanin receptors, GAL1, GAL2, and GAL3, using protocols described herein.
The binding properties of the indolones of the present invention were evaluated at the cloned human galanin receptors, GAL1, GAL2, and GAL3, using protocols described herein.
LM(tk-) cells were stably transfected with the human GAL1 or GAL3 receptor. CHO cells were stably transfected with the human GAL2 receptor.
cDNAs for the human and rat GAL1, and human and rat GAL3 receptors were transfected with a G-418 resistant gene into the mouse fibroblast LM(tk-) cell line by a calcium phosphate transfection method (Cullen, 1987). Stably transfected cells were selected with G-418. Human and rat GAL2 receptors were similarly transfected into CHO cells.
Membranes were harvested from stably transfected LM(tk-) cells. Adherent cells were washed twice in ice-cold phosphate buffered saline (138 mM NaCl, 8.1 mM Na2HPO4, 2.5 mM KCl, 1.2 mM KH2PO4, 0.9 mM CaCl2, 0.5 mM MgCl2, pH 7.4) and lysed by sonication in ice-cold sonication buffer (20 mM Tris-HCl, 5 mM EDTA, pH 7.7). Large particles and debris were cleared by low speed centrifugation (200 x g, 5 min, 4°C). Membranes were collected from the supernatant fraction by centrifugation (32,000 x g, 18 min, 4°C), washed with ice-cold hypotonic buffer, and collected again by centrifugation (32,000 x g, 18 min, 4°C). The final membrane pellet was resuspended by sonication into a small volume of ice-cold binding buffer (-1 ml for every 5 plates: 10 mM NaCl, 20 mM HEPES, 0.22 mM KH2PO4, 1.26 mM CaCl2, 0.81 mM MgSO4, pH 7.4). Protein concentration was measured by the Bradford method (Bradford, 1976) using Bio-Rad Reagent, with bovine serum albumin as a standard. Membranes were held on ice for up to one hour and used fresh, or flash frozen and stored in liquid nitrogen. Membranes were prepared similarly from CHO cells.
Galanin Recentors: Binding assays were performed according to the following published methods: human GAL3 (PCT International Publication No. WO 98/15570), human GAL1 (PCT International Publication No. WO 95/2260), human GAL2 (PCT International Publication No. WO 97/26853).
Binding data were analyzed using nonlinear regression and statistical techniques available in the GraphPAD Prism package (San Diego, CA). Enzymatic assay data were derived from a standard curve of reference compound data.

Ki | Compound
214 nM | COc1ccc2c(c1)N(c1ccccc1)C(=O)/C2=N\c1cccc(C(F)(F)F)c1 [Example 303, (3Z)-6-METHOXY-1-PHENYL-3-{[3-(TRIFLUOROMETHYL)PHENYL]IMINO}-1,3-DIHYDRO-2H-INDOL-2-ONE]
226 nM | N#CCc1ccc(/N=C2\C(=O)N(c3ccccc3)c3ccccc32)cc1 [Example 297, (4-{[(3Z)-2-OXO-1-PHENYL-1,2-DIHYDRO-3H-INDOL-3-YLIDENE]AMINO}PHENYL)ACETONITRILE]
875 nM | O=C1/C(=N\c2ccc3cn[nH]c3c2)c2ccccc2N1c1ccccc1 [Example 301, (3Z)-3-(1H-INDAZOL-6-YLIMINO)-1-PHENYL-1,3-DIHYDRO-2H-INDOL-2-ONE]
136 nM | O=C1C(=Nc2ccc(Cl)nc2)c2ccccc2N1c1ccccc1 (mixture of isomers) [Example 113]
150 nM | CCn1c2ccccc2c2cc(/N=C3\C(=O)N(c4ccccc4)c4ccccc43)ccc21 [Example 281, (3Z)-3-[(9-ETHYL-9H-CARBAZOL-3-YL)IMINO]-1-PHENYL-1,3-DIHYDRO-2H-INDOL-2-ONE]
41 nM | O=C1/C(=N\c2cccc(Br)c2)c2ccccc2N1c1ccccc1 [Example 307, (3Z)-3-[(3-BROMOPHENYL)IMINO]-1-PHENYL-1,3-DIHYDRO-2H-INDOL-2-ONE]
377 nM | O=C1/C(=N\c2ccc3ncsc3c2)c2ccccc2N1c1ccccc1 [Example 299, (3Z)-3-(1,3-BENZOTHIAZOL-6-YLIMINO)-1-PHENYL-1,3-DIHYDRO-2H-INDOL-2-ONE]
98 nM | O=C1/C(=N\c2cccc(C(F)(F)F)c2)c2cc(-c3ccccc3)ccc2N1c1ccccc1 [Example 308]
55 nM | Cc1cc(/N=C2\C(=O)N(c3ccsc3)c3ccccc32)ccc1Cl [Example 259]
33 nM | O=C1/C(=N\c2ccc(Cl)c(Cl)c2)c2ccccc2N1c1cc(Cl)cc(Cl)c1 [Example 257, (3Z)-1-(3,5-DICHLOROPHENYL)-3-[(3,4-DICHLOROPHENYL)IMINO]-1,3-DIHYDRO-2H-INDOL-2-ONE]

Compound | Ki
O=C1/C(=N\c2cccc(C(F)(F)F)c2)c2ccccc2N1Cc1ccccn1 [Example 273] | 202 nM
O=C1/C(=N\c2cc(Cl)cc(Cl)c2)c2ccccc2N1Cc1ccccn1 [Example 274] | 174 nM

Same assay, conditions: pyrimidines, cloned human receptor; read-out: Ki GalR3

Compound | Ki
CCOc1cccc(Nc2cc(N(C)C)nc(N3CCN(c4ccccn4)CC3)n2)c1 [Example 135] | 100 nM
COc1cccc(Nc2cc(N(C)C)nc(N3CCN(Cc4ccccc4)CC3)n2)c1 [Example 252] | 88 nM
Cc1ccc(Nc2cc(N(C)C)nc(N(C)CCc3ccccn3)n2)cc1 [Example 161] | 114 nM
COc1cccc(Nc2cc(N(C)C)nc(N3CCN(Cc4ccccn4)CC3)n2)c1 [Example 144] | 529 nM
CN(C)c1cc(Nc2cccc(OCc3ccccc3)c2)nc(N2CCN(Cc3ccccc3)CC2)n1 [Example 228] | 32 nM
Cc1ccc(Nc2cc(N3CCCCC3)nc(N3CCN(c4cccc(C(F)(F)F)n4)CC3)n2)cc1 [Example 33] | 181 nM
CCCCCCCCc1ccc(Nc2cc(N(C)C)nc(N3CCN(c4ccccn4)CC3)n2)cc1 [Example 192] | 18 nM
CN(C)c1cc(Nc2ccc3c(c2)OCCO3)nc(N2CCN(c3ccccn3)CC2)n1 [Example 119] | 540 nM
CN(C)c1cc(Nc2ccc(Cc3ccccc3)cc2)nc(N2CCN(c3ccccn3)CC2)n1 [Example 188] | 27 nM
COc1ccc(OC)c(Nc2cc(N(C)C)nc(N3CCN(Cc4ccccc4)CC3)n2)c1 [Example 227] | 600 nM
Cc1ccc(Nc2cc(N(C)C)nc(N3CCN(c4ccc(Br)cn4)CC3)n2)cc1 [Example 140] | 169 nM
Cc1ccccc1Nc1cc(N(C)C)nc(Nc2ccccc2)n1 [Example 51] | 987 nM
COc1cccc(Nc2cc(N(C)C)nc(NCCc3ccccc3)n2)c1 [Example 247] | 195 nM
Cc1nc2cc(Nc3cc(N(C)C)nc(N4CCN(Cc5ccccc5)CC4)n3)ccc2s1 [Example 127] | 255 nM
CN(C)c1cc(Nc2ccc(Br)c(C(F)(F)F)c2)nc(N2CCN(c3ccccn3)CC2)n1 [Example 133] | 60 nM
Cc1ccc(Nc2cc(N(C)C)nc(N3CCN(Cc4ccccc4)CC3)n2)cc1Cl [Example 172] | 20 nM
Cc1ccc(Nc2cc(N(C)C)nc(Nc3ccc(C)cc3)n2)cc1 [Example 56] | 794 nM
Cc1cccc(Nc2cc(N(C)C)nc(N3CCN(c4ccccn4)CC3)n2)c1C [Example 215] | 450 nM
CCCCCCc1ccc(Nc2cc(N(C)C)nc(N3CCN(c4ccccn4)CC3)n2)cc1 [Example 187] | 19 nM
Cc1ccc(Nc2cc(N(C)C)nc(NCCc3cccs3)n2)cc1 [Example 237] | 404 nM
CN(C)c1cc(NC2CCC(OCc3ccccc3)CC2)nc(N2CCN(Cc3ccccc3)CC2)n1 (centres unmarked) [Example 152] | 172 nM

Compound | Ki
Cc1ccc(Nc2cc(N(C)C)nc(N3CCN(c4ccccn4)CC3)n2)c(Br)c1 [Example 204] | 269 nM
CN(C)c1cc(Nc2ccc(Br)cc2)nc(Nc2ccccc2)n1 [Example 59] | 566 nM
COc1ccc(Cl)cc1Nc1cc(N(C)C)nc(N2CCN(c3ccccn3)CC2)n1 [Example 220] | 708 nM
COc1cccc(CCNc2nc(Nc3ccc(C)cc3)cc(N(C)C)n2)c1 [Example 149] | 138 nM
Cc1ccc(Nc2cc(N(C)C)nc(N3CCN(c4ccc(O)cc4)CC3)n2)cc1 [Example 116] | 479 nM
CN(C)c1cc(Nc2cc(Cl)ccc2Cl)nc(N2CCN(c3ccccn3)CC2)n1 [Example 208] | 120 nM
Cc1ccc(Nc2cc(N(C)C)nc(N3CCN(c4cccc(OCc5ccccc5)c4)CC3)n2)cc1 [Example 131] | 20 nM
CN(C)c1cc(Nc2cccc(Br)c2)nc(N2CCN(c3ccccn3)CC2)n1 [Example 243] | 46 nM
CCCc1ccc(Nc2cc(N(C)C)nc(N3CCN(c4ccccn4)CC3)n2)cc1 [Example 209] | 205 nM
COc1cccc(Nc2cc(N(C)C)nc(N3CCN(c4ccccc4C(F)(F)F)CC3)n2)c1 [Example 246] | 270 nM
Cc1ccc(Nc2cc(N3CCC(=O)CC3)nc(N3CCN(Cc4ccccc4)CC3)n2)cc1 [Example 184] | 163 nM
CN(C)c1cc(Nc2ccc(C(F)(F)F)cc2Cl)nc(N2CCN(c3ccccn3)CC2)n1 [Example 136] | 25 nM
COc1cc(Nc2cc(N(C)C)nc(N3CCN(c4ccccn4)CC3)n2)cc(C(F)(F)F)c1 [Example 197] | 666 nM
CN(C)c1cc(Nc2cc(F)ccc2Cl)nc(N2CCN(c3ccccn3)CC2)n1 [Example 222] | 847 nM
COc1cccc(Nc2cc(N(C)C)nc(N(C)CCc3ccccn3)n2)c1 [Example 177] | 142 nM
CN(C)c1cc(Nc2ccccc2Cc2ccccc2)nc(N2CCN(c3ccccn3)CC2)n1 [Example 186] | 69 nM
CN(C)c1cc(NC2C3CC4CC(C3)CC2C4)nc(N2CCN(Cc3ccccc3)CC2)n1 (centres unmarked) [Example 137] | 124 nM
CN(C)c1cc(Nc2cncc3ccccc23)nc(N2CCN(c3ccccn3)CC2)n1 [Example 120] | 664 nM
CN(C)c1cc(Nc2ccc3c(c2)CCC3)nc(N2CCN(c3ccccn3)CC2)n1 [Example 123] | 61 nM
COc1cccc(CN2CCN(c3nc(Nc4cccc(OC)c4)cc(N(C)C)n3)CC2)c1 [Example 148] | 276 nM
